Assay results reported in the supplement of paper PMC10307832.

How the values were obtained:
Assay in all cases: relative viability (nuclei count vs DMSO), 5 days (fraction); higher = more cells survive
QS11 + OSI-027 = compound: C1CC2=C(C1)C=C(C=C2)OC3=NC(=C4C(=N3)N(C=N4)CC5=CC=C(C=C5)C6=CC=CC=C6)N[C@@H](CC7=CC=CC=C7)CO [QS11] + COc1cccc2cc(-c3nc([C@H]4CC[C@H](C(=O)O)CC4)n4ncnc(N)c34)[nH]c12 [OSI-027] (partner 0.5 µM)
Outline: (§1)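 Lung cancer cell lines in 1536-well plates were dosed by pin tool the day after seeding, either with one drug alone or with a fixed anchor-drug dose plus five library-drug doses (not always all listed) in √10 steps. After 5 days, cells were fixed and their nuclei stained in one step (final 0.05% Triton X-100, 1% formaldehyde, 1 ug/ml Hoechst), then counted on 4× images. Relative viability is the nuclei count in treated wells divided by that in vehicle wells. Values are medians of duplicate plates.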

[1] = compound: C[As](C)SC[C@H](NC(=O)CC[C@H](N)C(=O)O)C(=O)NCC(=O)O [Darinaparsin] + O=C(CCCCCCC(=O)Nc1ccccc1)NO [Vorinostat] (partner 1 µM)
Outline: as §1

AZ628 + Tozasertib = compound: CC1=C(C=C(C=C1)NC(=O)C2=CC(=CC=C2)C(C)(C)C#N)NC3=CC4=C(C=C3)N=CN(C4=O)C [AZ628] + Cc1cc(Nc2cc(N3CCN(C)CC3)nc(Sc3ccc(NC(=O)C4CC4)cc3)n2)n[nH]1 [Tozasertib] (partner 0.1 µM)
Outline: as §1

[2] = compound: C[As](C)SC[C@H](NC(=O)CC[C@H](N)C(=O)O)C(=O)NCC(=O)O [Darinaparsin] + C[C@@H](Oc1cc(-c2cnn(C3CCNCC3)c2)cnc1N)c1c(Cl)ccc(F)c1Cl [Crizotinib] (partner 1 µM)
Outline: as §1

Cell Line | relative viability (QS11 + OSI-027; first compound 0.08 µM) | relative viability (QS11 + OSI-027; first compound 0.253 µM) | relative viability (QS11 + OSI-027; first compound 2.53 µM) | relative viability (QS11 + OSI-027; first compound 8 µM) | relative viability ([1]; first compound 0.08 µM) | relative viability ([1]; first compound 0.8 µM) | relative viability ([1]; first compound 2.53 µM) | relative viability ([1]; first compound 8 µM) | relative viability (AZ628 + Tozasertib; first compound 0.08 µM) | relative viability (AZ628 + Tozasertib; first compound 0.253 µM) | relative viability (AZ628 + Tozasertib; first compound 0.8 µM) | relative viability (AZ628 + Tozasertib; first compound 2.53 µM) | relative viability (AZ628 + Tozasertib; first compound 8 µM) | relative viability ([2]; first compound 0.08 µM) | relative viability ([2]; first compound 0.8 µM) | relative viability ([2]; first compound 2.53 µM) | relative viability ([2]; first compound 8 µM) | relative viability (QS11 + OSI-027; first compound 0.8 µM)
NCI-H1915 | 0.61 | 0.617 | 0.622 | 0.591 | 0.502 | 0.468 | 0.485 | 0.579 | 0.429 | 0.412 | 0.377 | 0.309 | 0.206 | 1.06 | 0.839 | 0.795 | 1.13 | 
NCI-H1944 | 0.41 | 0.387 | 0.378 | 0.314 | 0.595 | 0.542 | 0.61 | 0.682 | 0.26 | 0.227 | 0.235 | 0.249 | 0.209 | 1.39 | 1.1 | 1.05 | 1.27 | 
NCI-H1975 | 0.737 | 0.674 | 0.659 | 0.805 | 0.875 | 0.728 | 0.741 | 0.854 | 0.794 | 0.562 | 0.449 | 0.453 | 0.163 | 1.13 | 1.12 | 0.879 | 1.42 | 0.741
NCI-H1993 | 0.582 | 0.674 | 0.538 | 0.5 | 0.765 | 0.855 | 0.697 | 0.827 | 0.613 | 0.617 | 0.591 | 0.602 | 0.555 | 0.979 | 0.834 | 0.82 | 0.774 | 0.547
NCI-H2009 | 0.66 | 0.639 | 0.448 | 0.462 | 0.866 | 0.717 | 0.645 | 0.72 | 0.667 | 0.571 | 0.599 | 0.569 | 0.298 | 1.09 | 0.991 | 0.953 | 1.02 | 0.53
NCI-H2023 | 0.477 | 0.344 | 0.486 | 0.364 | 0.662 | 0.554 | 0.707 | 0.666 | 0.308 | 0.284 | 0.235 | 0.212 | 0.137 | 0.745 | 0.636 | 0.56 | 0.754 | 0.52
NCI-H2085 | 0.724 | 0.655 | 0.724 | 0.831 | 0.73 | 0.732 | 0.827 | 0.764 | 0.754 | 0.899 | 0.935 | 0.743 | 0.382 | 0.936 | 0.858 | 0.768 | 0.9 | 0.886
NCI-H2087 | 0.523 | 0.5 | 0.532 | 0.532 | 0.932 | 0.839 | 0.892 | 1.14 | 0.251 | 0.174 | 0.19 | 0.204 | 0.132 | 1.04 | 0.911 | 0.889 | 1.11 | 
NCI-H2126 | 0.685 | 0.697 | 0.653 | 0.646 | 0.77 | 0.687 | 0.743 | 0.708 | 0.899 | 0.815 | 0.951 | 0.859 | 0.866 | 1.14 | 1.01 | 0.93 | 1.12 | 0.727
NCI-H2170 | 0.691 | 0.692 | 0.8 | 0.743 | 0.967 | 0.694 | 0.676 | 1.17 | 0.823 | 0.741 | 0.693 | 0.852 | 0.667 | 1.61 | 1.35 | 0.953 | 1.51 | 0.703
NCI-H2228 | 0.534 | 0.424 | 0.74 | 0.597 | 0.771 | 0.839 | 0.388 | 0.672 | 0.241 | 0.288 | 0.239 | 0.272 | 0.161 | 0.613 | 0.506 | 0.484 | 0.512 | 0.538
NCI-H2347 | 0.489 | 0.474 | 0.371 | 0.347 | 0.477 | 0.541 | 0.679 | 0.718 | 0.491 | 0.514 | 0.555 | 0.514 | 0.303 | 0.709 | 0.703 | 0.747 | 0.696 | 0.411
NCI-H2405 | 0.626 | 0.663 | 0.654 | 0.694 | 1.07 | 1.02 | 0.924 | 1.12 | 0.5 | 0.637 | 0.539 | 0.529 | 0.457 | 0.911 | 0.787 | 0.755 | 0.873 | 0.64
NCI-H3122 | 1.03 | 1.41 | 0.994 | 0.757 | 1.18 | 1.22 | 0.927 | 1.36 | 0.392 | 0.339 | 0.345 | 0.254 | 0.189 | 0.336 | 0.258 | 0.251 | 0.289 | 
PC-3 [JPC-3] | 0.794 | 0.743 | 0.718 | 0.739 | 0.903 | 0.739 | 0.945 | 0.872 | 0.909 | 0.909 | 0.926 | 0.91 | 0.798 | 0.976 | 0.948 | 0.973 | 0.849 | 0.371
PC-14 | 0.731 | 0.98 | 0.807 | 0.695 | 0.691 | 0.753 | 0.545 | 0.572 | 0.502 | 0.526 | 0.612 | 0.564 | 0.44 | 1.26 | 0.797 | 0.72 | 1.01 | 0.809
RERF-LC-KJ | 0.519 | 0.578 | 0.448 | 0.438 | 0.686 | 0.742 | 0.563 | 0.723 | 0.506 | 0.526 | 0.452 | 0.493 | 0.307 | 1.01 | 0.925 | 0.791 | 0.96 | 0.543
SK-LU-1 | 0.321 | 0.327 | 0.254 | 0.291 | 0.742 | 0.784 | 0.591 | 0.702 |  | 0.275 | 0.287 | 0.255 | 0.283 | 1.15 | 1.06 | 0.669 | 0.946 | 0.326
SK-MES-1 | 0.627 | 0.575 | 0.615 | 0.623 | 1.11 | 1.07 | 0.924 | 1.43 | 0.952 | 0.875 | 1.01 | 0.959 | 0.443 | 1.19 | 1.04 | 0.838 | 1.11 | 0.544
SW 1573 | 0.583 | 0.655 | 0.465 | 0.278 | 0.837 | 0.754 | 0.653 | 0.738 | 0.203 | 0.186 | 0.2 | 0.135 | 0.122 | 1.13 | 0.711 | 0.668 | 0.851 | 0.734
UMC-11 | 0.474 | 0.481 | 0.492 | 0.57 | 0.339 | 0.314 | 0.384 | 0.308 | 0.228 | 0.21 | 0.194 | 0.212 | 0.203 | 0.678 | 0.577 | 0.407 | 0.559 | 0.501
